Experimental data reported in patent publication US11851391B2, “Antifungal compounds and methods of forming the same” (University of Kentucky Research Foundation, priority 2018, dated 2023).
Values after ≈ are worked out from the molar mass of the structure shown. Where two headings read alike, the source gives them in different places.

What was measured:
[1] = tested on: Candida albicans ATCC 10231(R) (strain A); test: MIC determination, in vitro antifungal assay (CLSI M27-A3); assay type: cell-based; conditions: MIC-0 (no visible growth), 48 h at 35° C.
Outline: (§1)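 The read-out is MIC-0, the minimum drug concentration yielding complete inhibition of yeast growth. Testing followed CLSI M27-A3 with minor changes, using cells at 2-4×10^3 CFU/mL in MOPS-buffered RPMI 1640 (pH 7.0) at 35° C, with DMSO under 1.25%.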

[2] = tested on: Candida parapsilosis ATCC 22019 (strain J); test: as above; assay type: cell-based; conditions: strain J, MIC-0, 48 h at 35° C.
Outline: as §1

[3] = tested on: C. albicans ATCC 64124(R) (strain B); test: as above; assay type: cell-based, Candida albicans; conditions: strain B, MIC-0, 48 h at 35° C.
Outline: as §1

[4] = tested on: C. albicans ATCC MYA-2310(S) (strain E); test: as above; assay type: cell-based, Candida albicans; conditions: MIC-0, 48 h at 35° C.
Outline: as §1

[5] = tested on: C. albicans ATCC MYA-1003(R) (strain G); test: as above; assay type: cell-based, Candida albicans; conditions: MIC-0, 48 h at 35° C.
Outline: (§2)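 Testing follows CLSI M27-A3 with cells cultured at 35° C in RPMI 1640 (L-glutamine, no bicarbonate) buffered by 0.165 M MOPS to pH 7.0. Cell density was set by OD600 before dilution to 2-4×10^3 CFU/mL, and solvent was limited to <1.25% DMSO.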

[6] = tested on: C. albicans ATCC MYA-2876(S) (strain C); test: as above; assay type: cell-based, Candida albicans; conditions: MIC-0, 48 h at 35° C.
Outline: as §2

[7] = tested on: Candida glabrata ATCC 2001 (strain H); test: as above; assay type: cell-based; conditions: MIC-0, 48 h at 35° C.
Outline: as §2

[8] = tested on: Candida krusei ATCC 6258 (strain I); test: as above; assay type: cell-based; conditions: MIC-0, 48 h at 35° C.
Outline: as §2

[9] = tested on: Aspergillus flavus ATCC MYA-3631 (strain K); test: MIC determination against filamentous fungi (CLSI M38-A2); assay type: cell-based; conditions: MIC-0, 48 h at 35° C.
Outline: (§3)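 MIC-0, meaning no visible growth relative to growth control, was scored after 48 h at 35° C, in triplicate. Hemocytometer-counted spores from potato dextrose agar were inoculated at 5×10^5 CFU/mL final. The medium was MOPS-buffered (0.165 M) RPMI 1640 at pH 7.0, following CLSI M38-A2.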

[10] = tested on: Aspergillus nidulans ATCC 38163 (strain L); test: as above; assay type: cell-based; conditions: MIC-0, 48 h at 35° C.
Outline: as §3

[11] = tested on: Aspergillus terreus ATCC MYA-3633 (strain M); test: as above; assay type: cell-based; conditions: MIC-0, 48 h at 35° C.
Outline: as §3

[12] = Candida albicans, ATCC10231, 48 h, read-out: MIC
[13] = Lodderomyces parapsilosis, ATCC22019, 48 h, read-out: MIC
[14] = Candida albicans, ATCC64124, 48 h, read-out: MIC
[15] = Candida albicans, 48 h, read-out: MIC
[16] = Nakaseomyces glabratus, ATCC2001, 48 h, read-out: MIC
[17] = Pichia kudriavzevii, ATCC6258, 48 h, read-out: MIC
[18] = Aspergillus flavus, 48 h, read-out: MIC
[19] = Aspergillus nidulans, ATCC38163, 48 h, read-out: MIC
[20] = Aspergillus terreus, 48 h, read-out: MIC

Compound	MIC [1, 12]	MIC [1]	MIC [2, 13]	MIC [3, 14]	MIC [4, 15]	MIC [5, 15]	MIC [5]	MIC [6, 15]	MIC [7, 16]	MIC [8]	MIC [8, 17]	MIC [9, 18]	MIC [9]	MIC [10, 19]	MIC [10]	MIC [11, 20]	MIC [6]	MIC [3]	MIC [4]	other results
C(=N\Nc1ccccc1)/c1ccc(-c2cccc(/C=N/Nc3ccccc3)c2)cc1 [Compound 7a]	1.95 to 3.9 µg/mL (≈ 4.99 to 9.99 µM)	1.95 µg/mL (≈ 4.99 µM)	> 31.3 µg/mL	31.3 µg/mL (≈ 80.2 µM)	31.3 µg/mL (≈ 80.2 µM)	1.95 to 3.9 µg/mL (≈ 4.99 to 9.99 µM)	3.9 µg/mL (≈ 9.99 µM)	31.3 µg/mL (≈ 80.2 µM)	> 31.3 µg/mL	7.8 µg/mL (≈ 20 µM)	7.8 to 15.6 µg/mL (≈ 20 to 39.9 µM)	1.95 to 3.9 µg/mL (≈ 4.99 to 9.99 µM)	3.9 µg/mL (≈ 9.99 µM)	1.95 to 3.9 µg/mL (≈ 4.99 to 9.99 µM)	1.95 µg/mL (≈ 4.99 µM)	7.8 to 15.6 µg/mL (≈ 20 to 39.9 µM)				MIC [11]: 15.6 µg/mL (≈ 39.9 µM)
Fc1cccc(N/N=C/c2ccc(-c3cccc(/C=N/Nc4cccc(F)c4)c3)cc2)c1 [Compound 12a]	1.95 to 3.9 µg/mL (≈ 4.57 to 9.14 µM)	1.95 µg/mL (≈ 4.57 µM)	31.3 µg/mL (≈ 73.4 µM)	> 31.3 µg/mL	> 31.3 µg/mL	7.8 to 15.6 µg/mL (≈ 18.3 to 36.6 µM)	7.8 µg/mL (≈ 18.3 µM)	7.8 to 15.6 µg/mL (≈ 18.3 to 36.6 µM)	> 31.3 µg/mL	1.95 µg/mL (≈ 4.57 µM)	1.95 to 3.9 µg/mL (≈ 4.57 to 9.14 µM)	1.95 to 3.9 µg/mL (≈ 4.57 to 9.14 µM)	3.9 µg/mL (≈ 9.14 µM)	7.8 to 15.6 µg/mL (≈ 18.3 to 36.6 µM)	7.8 µg/mL (≈ 18.3 µM)	> 31.3 µg/mL	7.8 µg/mL (≈ 18.3 µM)			
COc1ccc(N/N=C/c2ccc(-c3cccc(/C=N/Nc4ccc(OC)cc4)c3)cc2)cc1 [Compound 15a]	1.95 to 3.9 µg/mL (≈ 4.33 to 8.66 µM)	1.95 µg/mL (≈ 4.33 µM)	> 31.3 µg/mL	15.6 µg/mL (≈ 34.6 µM)				1.95 to 3.9 µg/mL (≈ 4.33 to 8.66 µM)		3.9 µg/mL (≈ 8.66 µM)	1.95 to 3.9 µg/mL (≈ 4.33 to 8.66 µM)	> 31.3 µg/mL		31.3 µg/mL (≈ 69.5 µM)		> 31.3 µg/mL	3.9 µg/mL (≈ 8.66 µM)			
COc1ccc(N/N=C/c2ccc(-c3ccc(/C=N/Nc4ccc(OC)cc4)cc3)cc2)cc1 [Compound 15b]	7.8 to 15.6 µg/mL (≈ 17.3 to 34.6 µM)	7.8 µg/mL (≈ 17.3 µM)	7.8 to 15.6 µg/mL (≈ 17.3 to 34.6 µM)	3.9 µg/mL (≈ 8.66 µM)	3.9 µg/mL (≈ 8.66 µM)	7.8 to 15.6 µg/mL (≈ 17.3 to 34.6 µM)	7.8 µg/mL (≈ 17.3 µM)	7.8 to 15.6 µg/mL (≈ 17.3 to 34.6 µM)	7.8 to 15.6 µg/mL (≈ 17.3 to 34.6 µM)	7.8 µg/mL (≈ 17.3 µM)	7.8 to 15.6 µg/mL (≈ 17.3 to 34.6 µM)	> 31.3 µg/mL		7.8 to 15.6 µg/mL (≈ 17.3 to 34.6 µM)	7.8 µg/mL (≈ 17.3 µM)	> 31.3 µg/mL	7.8 µg/mL (≈ 17.3 µM)	3.9 µg/mL (≈ 8.66 µM)	3.9 µg/mL (≈ 8.66 µM)	MIC [2]: 15.6 µg/mL (≈ 34.6 µM); MIC [7]: 7.8 µg/mL (≈ 17.3 µM)
Fc1ccc(N/N=C/c2ccc(-c3cccc(/C=N/Nc4ccc(F)cc4)c3)cc2)cc1 [Compound 17a]	1.95 to 3.9 µg/mL (≈ 4.57 to 9.14 µM)	1.59 to 3.9 µg/mL	31.3 µg/mL (≈ 73.4 µM)	15.6 µg/mL (≈ 36.6 µM)	7.8 µg/mL (≈ 18.3 µM)	1.95 to 3.9 µg/mL (≈ 4.57 to 9.14 µM)	3.9 µg/mL (≈ 9.14 µM)	7.8 µg/mL (≈ 18.3 µM)	> 31.3 µg/mL		> 31.3 µg/mL	15.6 µg/mL (≈ 36.6 µM)		1.95 to 3.9 µg/mL (≈ 4.57 to 9.14 µM)	3.9 µg/mL (≈ 9.14 µM)	> 31.3 µg/mL				
Fc1ccc(N/N=C/c2ccc(-c3ccc(/C=N/Nc4ccc(F)cc4)cc3)cc2)cc1 [Compound 17b]	7.8 to 15.6 µg/mL (≈ 18.3 to 36.6 µM)	7.8 µg/mL (≈ 18.3 µM)	31.3 µg/mL (≈ 73.4 µM)	7.8 to 15.6 µg/mL (≈ 18.3 to 36.6 µM)	7.8 to 15.6 µg/mL (≈ 18.3 to 36.6 µM)	7.8 to 15.6 µg/mL (≈ 18.3 to 36.6 µM)	7.8 µg/mL (≈ 18.3 µM)	7.8 to 15.6 µg/mL (≈ 18.3 to 36.6 µM)	7.8 to 15.6 µg/mL (≈ 18.3 to 36.6 µM)	1.95 µg/mL (≈ 4.57 µM)	1.95 µg/mL (≈ 4.57 µM)	7.8 to 15.6 µg/mL (≈ 18.3 to 36.6 µM)	7.8 µg/mL (≈ 18.3 µM)	7.8 to 15.6 µg/mL (≈ 18.3 to 36.6 µM)	7.8 µg/mL (≈ 18.3 µM)	> 31.3 µg/mL	7.8 µg/mL (≈ 18.3 µM)	15.6 µg/mL (≈ 36.6 µM)	15.6 µg/mL (≈ 36.6 µM)	MIC [7]: 15.6 µg/mL (≈ 36.6 µM)
C/C(=N\Nc1ccc(F)cc1)c1ccc(-c2ccc(/C(C)=N/Nc3ccc(F)cc3)cc2)cc1 [Compound 17c, 4,4′-bis((E)-1-(2-(4-fluorophenyl)hydrazono)ethyl)-1,1′-biphenyl]	1.95 to 3.9 µg/mL (≈ 4.29 to 8.58 µM)	1.95 µg/mL (≈ 4.29 µM)	15.6 µg/mL (≈ 34.3 µM)	1.95 to 3.9 µg/mL (≈ 4.29 to 8.58 µM)	1.95 to 3.9 µg/mL (≈ 4.29 to 8.58 µM)	7.8 µg/mL (≈ 17.2 µM)		1.95 to 3.9 µg/mL (≈ 4.29 to 8.58 µM)	15.6 µg/mL (≈ 34.3 µM)	1.95 µg/mL (≈ 4.29 µM)	1.95 to 3.9 µg/mL (≈ 4.29 to 8.58 µM)	> 31.3 µg/mL		7.8 µg/mL (≈ 17.2 µM)		> 31.3 µg/mL	3.9 µg/mL (≈ 8.58 µM)	3.9 µg/mL (≈ 8.58 µM)	1.95 µg/mL (≈ 4.29 µM)	
Fc1ccc(N/N=C/c2ccc(-c3cccc(/C=N/Nc4ccc(F)cc4F)c3)cc2)c(F)c1 [Compound 20a]	1.95 to 3.9 µg/mL (≈ 4.22 to 8.43 µM)	3.9 µg/mL (≈ 8.43 µM)	31.3 µg/mL (≈ 67.7 µM)	7.8 µg/mL (≈ 16.9 µM)	15.6 µg/mL (≈ 33.7 µM)	7.8 µg/mL (≈ 16.9 µM)		15.6 µg/mL (≈ 33.7 µM)	15.6 µg/mL (≈ 33.7 µM)	1.95 µg/mL (≈ 4.22 µM)	1.95 to 3.9 µg/mL (≈ 4.22 to 8.43 µM)	7.8 µg/mL (≈ 16.9 µM)		7.8 µg/mL (≈ 16.9 µM)		31.3 µg/mL (≈ 67.7 µM)				
